This is an account of results in patent publication US20260250290A1 (BRISTOL-MYERS SQUIBB COMPANY, priority 2023, published 2026).

Structures can show the parent of a compound that is named as a salt.

The assay has as its target T1, full length SGK1 (Homo sapiens, UniProt O00141).
T1 construct: 125 μM full length SGK1 (Life Technologies Part #PR7358A); purchased Life Technologies PR7358A
T1 sequence (O00141 1-431): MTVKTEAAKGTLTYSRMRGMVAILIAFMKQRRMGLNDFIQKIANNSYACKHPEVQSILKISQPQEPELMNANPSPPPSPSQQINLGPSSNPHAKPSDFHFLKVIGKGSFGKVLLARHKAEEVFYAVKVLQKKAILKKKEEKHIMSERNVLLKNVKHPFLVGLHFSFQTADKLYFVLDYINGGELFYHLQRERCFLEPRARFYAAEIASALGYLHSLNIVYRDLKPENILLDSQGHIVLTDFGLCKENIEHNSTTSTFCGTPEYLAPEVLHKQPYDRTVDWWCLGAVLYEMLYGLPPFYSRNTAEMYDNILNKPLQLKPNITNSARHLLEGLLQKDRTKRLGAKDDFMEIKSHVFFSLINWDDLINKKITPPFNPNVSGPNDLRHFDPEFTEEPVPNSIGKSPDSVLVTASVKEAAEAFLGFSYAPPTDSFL
The experiment in a line: SGK1 inhibition Assay A (Caliper LabChip electrophoretic separation of fluorescent peptide substrate and phosphorylated product). It counts as biochemical. The following applies: Assay A; 20 μM ATP, 40 min incubation; read-out: SGK1 IC50.

In the case of `CC(=O)N1CC=C(c2cc(N3CCC[C@@H](NC(=O)c4sc(Cl)cc4OC4CCN(C)CC4F)C3)c3c(N)ncnn23)C1` (single isomer, unassigned) [Example 600], the IC50 is 0.006 µM.
In the case of `CC(=O)N1CC=C(c2cc(N3CCC[C@@H](NC(=O)c4sc(Cl)cc4OC4CC5CC4CN5)C3)c3c(N)ncnn23)C1` (single isomer, unassigned) [Example 607], the IC50 amounted to 0.003 µM.
As for `CC(=O)N1CC=C(c2cc(N3CCCC(NC(=O)c4sc(Cl)cc4OC4CC5CC4CN5C)C3)c3c(N)ncnn23)C1` (single isomer, unassigned) [Example 608], the half-maximal inhibitory concentration (IC50) is 0.008 µM.
On to `CC(=O)N1CC=C(c2cc(N3CCCC(NC(=O)c4sc(Cl)cc4OC4CC5CC4CN5C)C3)c3c(N)ncnn23)C1` (single isomer, unassigned) [Example 609], for which the IC50 was 0.007 µM.
To `CC(=O)N1CC=C(c2cc(N3CCCC(NC(=O)c4sc(Cl)cc4OC4CC5CC4CN5C(C)C)C3)c3c(N)ncnn23)C1` (single isomer, unassigned) [Example 610] belongs 0.011 µM; to `CC(=O)N1CC=C(c2cc(N3CCCC(NC(=O)c4sc(Cl)cc4OC4CC5CC4CN5C(C)C)C3)c3c(N)ncnn23)C1` (single isomer, unassigned) [Example 611], 0.007 µM.
To `CC(=O)N1CC=C(c2cc(N3CCCC(NC(=O)c4sc(Cl)cc4OC4CCNC(C)C4)C3)c3c(N)ncnn23)C1` (single isomer, unassigned) [Example 622] belongs 0.003 µM; to `CC(=O)N1CC=C(c2cc(N3CCCC(NC(=O)c4sc(Cl)cc4OC4CCNC(C)C4)C3)c3c(N)ncnn23)C1` (single isomer, unassigned) [Example 623], 0.004 µM.
To `CC1CC(Oc2cc(Cl)sc2C(=O)NC2CCCN(c3cc(-c4cncnc4)n4ncnc(N)c34)C2)CCN1` (single isomer, unassigned) [Example 625] belongs 0.006 µM.
`CC1CC(Oc2cc(Cl)sc2C(=O)NC2CCCN(c3cc(-c4cncnc4)n4ncnc(N)c34)C2)CCN1` (single isomer, unassigned) [Example 626]: the IC50 is 0.008 µM.
To `COC(=O)N1CC=C(c2cc(N3CCCC(NC(=O)c4sc(Cl)cc4OC4CCNC(C)(C)C4)C3)c3c(N)ncnn23)C1` (single isomer, unassigned) [Example 629] belongs 0.005 µM.
To `COC(=O)N1CC=C(c2cc(N3CCCC(NC(=O)c4sc(Cl)cc4OC4CCNC(C)(C)C4)C3)c3c(N)ncnn23)C1` (single isomer, unassigned) [Example 630] belongs 0.002 µM; to `CC(=O)N1CC=C(c2cc(N3CCCC(NC(=O)c4sc(Cl)cc4OCC4CCNC4)C3)c3c(N)ncnn23)C1` (single isomer, unassigned) [Example 638], 0.008 µM.
For the compound `CC(=O)N1CC=C(c2cc(N3CCCC(NC(=O)c4sc(Cl)cc4OCC4CCNC4)C3)c3c(N)ncnn23)C1` (single isomer, unassigned) [Example 639], the half-inhibitory concentration (IC50) was 0.004 µM.
The value for `CCOC(=O)[C@H]1CCCN(c2cc(-c3ccc(S(C)(=O)=O)cc3)n3ncnc(N)c23)C1` [Example 1, ethyl (S)-1-(4-amino-7-(4-(methylsulfonyl)phenyl)pyrrolo[2,1-f][1,2,4]triazin-5-yl)piperidine-3-carboxylate] was 2.99 µM; that for `CS(=O)(=O)c1ccc(-c2cc(N3CCCC(NC(=O)c4ccccn4)C3)c3c(N)ncnn23)cc1` (stereo not drawn) [Example 2, N-(1-(4-amino-7-(4-(methylsulfonyl)phenyl)pyrrolo[2,1-f][1,2,4]triazin-5-yl)piperidin-3-yl)picolinamide, TFA] was 0.081 µM.
With `CS(=O)(=O)c1ccc(-c2cc(N3CCCC(NC(=O)c4cccnn4)C3)c3c(N)ncnn23)cc1` (stereo not drawn) [Example 3, N-(1-(4-amino-7-(4-(methylsulfonyl)phenyl)pyrrolo[2,1-f][1,2,4]triazin-5-yl)piperidin-3-yl)pyridazine-3-carboxamide, TFA], the half-maximal inhibitory concentration (IC50) is 0.239 µM.
In the case of `CS(=O)(=O)c1ccc(-c2cc(N3CCCC(NC(=O)c4ccccc4)C3)c3c(N)ncnn23)cc1` (stereo not drawn) [Example 4, N-(1-(4-amino-7-(4-(methylsulfonyl)phenyl)pyrrolo[2,1-f][1,2,4]triazin-5-yl)piperidin-3-yl)benzamide], the IC50 is 0.033 µM.
As for `CS(=O)(=O)c1ccc(-c2cc(N3CCCC(NC(=O)c4ccc(Cl)cc4)C3)c3c(N)ncnn23)cc1` (stereo not drawn) [Example 5, N-(1-(4-amino-7-(4-(methylsulfonyl)phenyl)pyrrolo[2,1-f][1,2,4]triazin-5-yl)piperidin-3-yl)-4-chlorobenzamide, TFA], the half-inhibitory concentration (IC50) is 0.073 µM.
As to `CS(=O)(=O)c1ccc(-c2cc(N3CCCC(NC(=O)c4ccc(Cl)c(Cl)c4)C3)c3c(N)ncnn23)cc1` (stereo not drawn) [Example 6, N-(1-(4-amino-7-(4-(methylsulfonyl)phenyl)pyrrolo[2,1-f][1,2,4]triazin-5-yl)piperidin-3-yl)-3,4-dichlorobenzamide], the IC50 was 0.157 µM.
For the compound `Cc1ccc(C(=O)NC2CCCN(c3cc(-c4ccc(S(C)(=O)=O)cc4)n4ncnc(N)c34)C2)cc1` (stereo not drawn) [Example 7, N-(1-(4-amino-7-(4-(methylsulfonyl)phenyl)pyrrolo[2,1-f][1,2,4]triazin-5-yl)piperidin-3-yl)-4-methylbenzamide, TFA], the IC50 is 0.09 µM.
On to `COc1ccc(C(=O)NC2CCCN(c3cc(-c4ccc(S(C)(=O)=O)cc4)n4ncnc(N)c34)C2)cc1` (stereo not drawn) [Example 8, N-(1-(4-amino-7-(4-(methylsulfonyl)phenyl)pyrrolo[2,1-f][1,2,4]triazin-5-yl)piperidin-3-yl)-4-methoxybenzamide, TFA], for which the half-maximal inhibitory concentration (IC50) is 0.067 µM.
On to `CS(=O)(=O)c1ccc(-c2cc(N3CCCC(NC(=O)Nc4ccccc4)C3)c3c(N)ncnn23)cc1` (stereo not drawn) [Example 9, 1-(1-(4-amino-7-(4-(methylsulfonyl)phenyl)pyrrolo[2,1-f][1,2,4]triazin-5-yl)piperidin-3-yl)-3-phenylurea, TFA], for which the IC50 turned out to be 0.263 µM.
To `CC(C)(C)OC(=O)N[C@@H]1CCCN(c2cc(-c3ccc(S(C)(=O)=O)cc3)n3ncnc(N)c23)C1` [Example 11, tert-butyl (R)-(1-(4-amino-7-(4-(methylsulfonyl)phenyl)pyrrolo[2,1-f][1,2,4]triazin-5-yl)piperidin-3-yl)carbamate] belongs 1.75 µM; to `CS(=O)(=O)c1ccc(-c2cc(N3CCC[C@@H](NC(=O)c4ccccc4)C3)c3c(N)ncnn23)cc1` [Example 13, (R)—N-(1-(4-amino-7-(4-(methylsulfonyl)phenyl)pyrrolo[2,1-f][1,2,4]triazin-5-yl)piperidin-3-yl)benzamide], 0.028 µM.
For `CS(=O)(=O)c1ccc(-c2cc(N3CCC[C@@H](NC(=O)Cc4ccccc4)C3)c3c(N)ncnn23)cc1` [Example 14, (R)-N-(1-(4-amino-7-(4-(methylsulfonyl)phenyl)pyrrolo[2,1-f][1,2,4]triazin-5-yl)piperidin-3-yl)-2-phenylacetamide, TFA], the IC50 was determined as 0.941 µM.
To `CS(=O)(=O)c1ccc(-c2cc(N3CCC[C@@H](NC(=O)CCc4ccccc4)C3)c3c(N)ncnn23)cc1` [Example 15, (R)-N-(1-(4-amino-7-(4-(methylsulfonyl)phenyl)pyrrolo[2,1-f][1,2,4]triazin-5-yl)piperidin-3-yl)-3-phenylpropanamide, TFA] belongs 0.499 µM; to `CS(=O)(=O)c1ccc(-c2cc(N3CCC[C@@H](NC(=O)C4CCCCC4)C3)c3c(N)ncnn23)cc1` [Example 16, (R)-N-(1-(4-amino-7-(4-(methylsulfonyl)phenyl)pyrrolo[2,1-f][1,2,4]triazin-5-yl)piperidin-3-yl) cyclohexanecarboxamide], 0.324 µM; to `CS(=O)(=O)c1ccc(-c2cc(N3CCC[C@@H](NC(=O)C4CCOCC4)C3)c3c(N)ncnn23)cc1` [Example 17, (R)-N-(1-(4-amino-7-(4-(methylsulfonyl)phenyl)pyrrolo[2,1-f][1,2,4]triazin-5-yl)piperidin-3-yl)tetrahydro-2H-pyran-4-carboxamide, TFA], 1.3 µM.
Regarding `CS(=O)(=O)c1ccc(-c2cc(N3CCC[C@@H](NC(=O)c4ccccc4Cl)C3)c3c(N)ncnn23)cc1` [Example 19, (R)-N-(1-(4-amino-7-(4-(methylsulfonyl)phenyl)pyrrolo[2,1-f][1,2,4]triazin-5-yl)piperidin-3-yl)-2-chlorobenzamide], the IC50 was 0.274 µM.
With `CS(=O)(=O)c1ccc(-c2cc(N3CCC[C@@H](NC(=O)c4ccccc4F)C3)c3c(N)ncnn23)cc1` [Example 20, (R)-N-(1-(4-amino-7-(4-(methylsulfonyl)phenyl)pyrrolo[2,1-f][1,2,4]triazin-5-yl)piperidin-3-yl)-2-fluorobenzamide], the IC50 turned out to be 0.047 µM.
To `CS(=O)(=O)c1ccc(-c2cc(N3CCC[C@@H](NC(=O)c4cccc(Cl)c4)C3)c3c(N)ncnn23)cc1` [Example 21, (R)-N-(1-(4-amino-7-(4-(methylsulfonyl)phenyl)pyrrolo[2,1-f][1,2,4]triazin-5-yl)piperidin-3-yl)-3-chlorobenzamide] belongs 0.013 µM; to `COc1cccc(C(=O)N[C@@H]2CCCN(c3cc(-c4ccc(S(C)(=O)=O)cc4)n4ncnc(N)c34)C2)c1` [Example 22, (R)-N-(1-(4-amino-7-(4-(methylsulfonyl)phenyl)pyrrolo[2,1-f][1,2,4]triazin-5-yl)piperidin-3-yl)-3-methoxybenzamide], 0.012 µM.
